Columns and labels:
cIL-31 induced pruritus [1] = experiment: canine interleukin-31 (cIL-31) induced pruritus model; assay type: in vivo, Beagle dog
Excerpt: A canine interleukin-31 (cIL-31) induced pruritus model in the Beagle dog was used to inform on the dose of Compound 1 required to inhibit JAK1 signaling in vivo. The cIL-31 induced pruritus model is a relevant model of acute pruritus associated with atopic and allergic dermatitis in dogs. The magnitude of the suppression of cIL-31 induced pruritus by JAK inhibitors is predictive of their pruritus suppression in patients with allergic or atopic dermatitis As a measure of JAK-1 inhibition in vivo, and by extension the anticipated clinical efficacy of Compound 1, we evaluated Compound 1 in a relevant pharmacodynamic model and included a clinical reference.
(§1) Using a randomized, non-blinded, cross-over study design, Compound 1 (1 mg/kg body weight), Apoquel®, or placebo was dosed orally to laboratory Beagle dogs 2 h prior to a cIL-31 challenge (approximate Tmax of Compound 1 and Apoquel®).
In a second study using a randomized, non-blinded crossover design, several doses of Compound 1 were evaluated (0.5, 0.1 and 0.05 mg/kg body weight); Apoquel® and placebo treatments were also included.

Tmax after oral dosing = assay type: in vivo, Beagle dog; conditions: laboratory Beagle dogs
Protocol: as §1

[2] = pilot Target Animal Safety (margin of safety) study, oral, 4 months; assay type: in vivo, Beagle dog
Protocol: A pilot Target Animal Safety study has been performed.
The objective of this study was to provide margin of safety information on Compound 1 at 1, 3 and 5 times the maximum recommended commercial dose (0.6 mg/kg body weight twice daily for two weeks and once daily thereafter (BID), or 1.2 mg/kg body weight daily (SID)) in 8-month-old Beagle dogs (at initiation of dosing), when given orally for 4 months (112 consecutive days). The clinical loading phase of 2 weeks for the BID treatment schedule was prolonged to 6 weeks in this study in accordance with VICH GL43 (3 times the proposed duration).
The test item was the final formulation blend of the investigational veterinary product, filled into gelatine capsules for dose administration. The control article was blank (empty) gelatine capsules.
In addition to that, a 4-month pilot target animal safety study has been conducted in 6-months old dogs utilizing either doses of 0.6, 1.8 or 3.0 mg/kg twice daily over the first 6 weeks (loading phase) and reducing to once daily thereafter (BID), or a dose of 6.0 mg/kg administered once daily over the whole study period (SID) compared to a control group, using 3 males and 3 females per group (Robertson, 2021).

[3] = tested on: pruritus and lesions of allergic or atopic dermatitis; conditions: cited from earlier work
[4] = cited from earlier work
cIL-31 induced pruritus [5] = conditions: prior treatment, Beagle dogs, Gonzales et al. 2016; cited from earlier work
[6] = dogs with allergic or atopic dermatitis, Cosgrove et al. 2013

COc1cc(Nc2nn([C@H]3COCC[C@@H]3C#N)cc2C(N)=O)cc(F)n1 (single isomer, unassigned) [Compound 1, 1-((3R,4S) or (3S,4R)-4-cyanotetrahydro-2H-pyran-3-yl)-3-((2-fluoro-6-methoxypyridin-4-yl)amino)-1H-pyrazole-4-carboxamide)]
suppression of cIL-31 induced pruritus (cIL-31 induced pruritus [1]; 0.05 mg/kg body weight, second study): not
suppression of cIL-31 induced pruritus (cIL-31 induced pruritus [1]; 0.1 mg/kg body weight, second study): not
suppression of cIL-31 induced pruritus (cIL-31 induced pruritus [1]; 0.5 mg/kg body weight, second study): significantly suppressed
magnitude of effect compared with Apoquel (cIL-31 induced pruritus [1]; 0.5 mg/kg, second study): similar
suppression of cIL-31 induced pruritus (cIL-31 induced pruritus [1]; 1 mg/kg body weight oral, 2 h prior to cIL-31 challenge, observed 2 h): significantly suppressed
Tmax (Tmax after oral dosing; dog, in vivo, 1 mg/kg body weight, read-out: approximate Tmax): ~2 h
changes in body weight, food consumption, ophthalmic examinations, electrocardiology or blood pressure ([2]; all doses, male and female dogs, oral, 4 months): no changes
tolerability ([2]; daily oral, up to 5 times the recommended maximum commercial dose of 1.2 mg/kg body weight (BID or SID), 6-month-old beagle dogs): well tolerated
clinical findings ([2]; overdosed animals): Minor clinical findings (e.g., interdigital cysts, conjunctivitis, gingivitis, diarrhoea)
susceptibility to minor infections ([2]; recommended maximum commercial dose): no increased susceptibility to minor infections
susceptibility to minor infections ([2]; repeated overdoses): increased susceptibility to minor infections
overall safety conclusion ([2]; young dogs): safe for use in young dogs

oclacitinib maleate [Apoquel]
effect on lesions [3, 6]: reduces lesions
effect on pruritus [3, 6]: rapid amelioration of pruritus
haematology effect ([3]; higher doses, FOI Summary NADA 141-345, Gonzales et al. 2014): reduction in hematocrit, hemoglobin, and reticulocyte counts
approximate Tmax (Tmax after oral dosing): ~2 h
dogs requiring euthanasia ([4]; after 4 months, 0, 1, 3, 5 times 0.6 mg/kg twice per day, dogs about 6 months old): two dogs required euthanasia
age dependence of adverse clinical effects ([4]; dog, in vivo): most severe adverse clinical effects were observed in dogs aged less than one year
deaths from infection secondary to immunosuppression ([4]; including one death 28 days after discontinuation): two deaths
adverse finding attributed to treatment-related immunosuppression ([4]; several dogs in the mid and high dose groups): clinical demodicosis
inhibition of cIL-31 induced pruritic response (cIL-31 induced pruritus [5]): can be inhibited
